Measurements as given in patent publication US20190374627A1, “TARGET PEPTIDES FOR CANCER THERAPY AND DIAGNOSTICS” (priority 2016, published 2019).
Square brackets hold non-standard residues; d marks the D form. Ends that are not written are not given here. pY = N[C@@H](Cc1ccc(OP(=O)(O)O)cc1)C(=O)O

Key:
[1] = tested on: unexpanded lymphocyte cultures (CD8^+ T cells); test: ICS for MHC-I-pP reactivity of lymphocyte cultures without expansion (Table 23, No Expansion); conditions: HH6
[2] = tested on: expanded lymphocyte cultures from deceased donor livers, cirrhotic livers and HCC; test: ICS for MHC-I-pP reactivity of liver-derived lymphocyte cultures after phosphopeptide-specific expansion; format: cell-based, human
CD8^+ T cells (PBMCs) = test: Intracellular cytokine staining (ICS) of PBMCs after 7 days of stimulation with MHC-I-pP (healthy donors, HH patients); format: cell-based, human
Outline: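 PBMCs or liver lymphocytes from HLA-A*0201-positive healthy donors and hereditary hemochromatosis patients were stimulated for 7 days with HLA-A*0201-restricted phosphopeptides and no added cytokines. After exclusion of doublets and dead cells with a fixable viability dye, CD3^+CD8^+ cells were analysed by intracellular staining for IFN-γ and TNF-α, plus CD107a where needed.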

[3] = tested on: expanded TIL / IHL cultures; test: ICS for MHC-I-pP reactivity of liver-derived lymphocyte cultures after unspecific rapid expansion protocol (REP); format: cell-based, human

yLQSRYYRA: HIPK3 phosphopeptide, HLA-A*0201 ([pY]LQSRYYRA; listed as Homo sapiens)
Reactive CD8^+ T cells, No Expansion, HH6 [1]: 1 (0.25-2.5% reactive CD8^-+ T cells)
Reactive CD8^+ T cells, pP-specific Expansion, Do2 ([2]; pP-specific Expansion, Do2): 2 (2.5-5.0% reactive CD8^-+ T cells)
Reactive CD8^+ T cells, pP-specific Expansion, Do4 ([2]; pP-specific Expansion, Do4): 0 (<0.25% reactive CD8^-+ T cells)
Reactive CD8^+ T cells, pP-specific Expansion, HH6 ([2]; pP-specific Expansion, HH6): 0 (<0.25% reactive CD8^-+ T cells)
ppCTL response, Deceased Donor Liver Do 2 ([2]; pP-specifically expanded culture, Deceased Donor Liver Do 2): 2 (2.5-5.0% reactive CD8-+ T cells)
ppCTL response, Deceased Donor Liver Do 3 ([2]; pP-specifically expanded culture, Deceased Donor Liver Do 3): 0 (<0.25% reactive CD8-+ T cells)
ppCTL response, Deceased Donor Liver Do 4 ([2]; pP-specifically expanded culture, Deceased Donor Liver Do 4): 0 (<0.25% reactive CD8-+ T cells)
ppCTL response, Deceased Donor Liver Do 6 ([2]; pP-specifically expanded culture, Deceased Donor Liver Do 6): 0 (<0.25% reactive CD8-+ T cells)
ppCTL response, End-stage Liver Cirrhosis IHL 11 ([2]; pP-specifically expanded culture, End-stage Liver Cirrhosis IHL 11): 0 (<0.25% reactive CD8-+ T cells)
ppCTL response, End-stage Liver Cirrhosis IHL 12 ([2]; pP-specifically expanded culture, End-stage Liver Cirrhosis IHL 12): 0 (<0.25% reactive CD8-+ T cells)
ppCTL response, End-stage Liver Cirrhosis IHL 13 ([2]; pP-specifically expanded culture, End-stage Liver Cirrhosis IHL 13): 0 (<0.25% reactive CD8-+ T cells)
ppCTL response, End-stage Liver Cirrhosis IHL 15 ([2]; pP-specifically expanded culture, End-stage Liver Cirrhosis IHL 15): 0 (<0.25% reactive CD8-+ T cells)
ppCTL response, HCC Distal HCC 1 ([2]; pP-specifically expanded culture, HCC 1 Distal): 0 (<0.25% reactive CD8-+ T cells)
ppCTL response, HCC Tumor HCC 1 ([2]; pP-specifically expanded culture, HCC 1 Tumor): 0 (<0.25% reactive CD8-+ T cells)
ppCTL response, HCC Distal HCC 4 ([2]; pP-specifically expanded culture, HCC 4 Distal): 0 (<0.25% reactive CD8-+ T cells)
ppCTL response, HCC Distal HCC 9 ([2]; pP-specifically expanded culture, HCC 9 Distal): 0 (<0.25% reactive CD8-+ T cells)
ppCTL response, HCC Tumor HCC 9 ([2]; pP-specifically expanded culture, HCC 9 Tumor): 1 (0.25-2.5% reactive CD8-+ T cells)
ppCTL response, HCC Distal HCC 12 ([2]; pP-specifically expanded culture, HCC 12 Distal): 0 (<0.25% reactive CD8-+ T cells)
Reactive CD8^+ T cell population, HH2 (CD8^+ T cells (PBMCs); HH patient HH2): 0 (<0.25% reactive CD8^-+ T cells)
Reactive CD8^+ T cell population, HH3 (CD8^+ T cells (PBMCs); HH patient HH3): 0 (<0.25% reactive CD8^-+ T cells)
Reactive CD8^+ T cell population, HH6 (CD8^+ T cells (PBMCs); HH patient HH6): 1 (0.25-2.5% reactive CD8^-+ T cells)
Reactive CD8^+ T cell population, HH8 (CD8^+ T cells (PBMCs); HH patient HH8): 0 (<0.25% reactive CD8^-+ T cells)
Reactive CD8^+ T cell population, HD1 (CD8^+ T cells (PBMCs); Healthy donor HD1): 0 (<0.25% reactive CD8^-+ T cells)
Reactive CD8^+ T cell population, HD4 (CD8^+ T cells (PBMCs); Healthy donor HD4): 0 (<0.25% reactive CD8^-+ T cells)
Reactive CD8^+ T cell population, HD5 (CD8^+ T cells (PBMCs); Healthy donor HD5): 0 (<0.25% reactive CD8^-+ T cells)
Reactive CD8^+ T cells, Non-specific Expansion, Do2 ([3]; Do2): 0 (<0.25% reactive CD8^-+ T cells)
Reactive CD8^+ T cells, Non-specific Expansion, Do4 ([3]; Do4): 0 (<0.25% reactive CD8^-+ T cells)
Reactive CD8^+ T cells, Non-specific Expansion, HH6 ([3]; HH6): 0 (<0.25% reactive CD8^-+ T cells)
